pEC50, pIC50: −log10 of the molar value. Where two headings read alike, the source gives them in different places.
Legend:
Assay in all cases: 72-hour CellTiter-Glo 2.0 growth inhibition screen (single agent, 9x9 combination dose matrix);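 for Best CI Level: inhibition effect level at which the best CI was calculated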
Assay type in all cases: cell-based
SW837 = settings: for pEC50: SW837, 72 h
Panc 04.03 = settings: for pEC50 / Response Area: Panc 04.03, Pancreas
SW48 KRAS (G12C/+) = settings: for pEC50: SW48, 72 h, read-out: EC50
SW48 = settings: for pEC50: SW48, 72 h
KYSE-410 = settings: for pEC50: KYSE-410, 72 h
[1] = Homo sapiens, SW837, Colorectal, Additional Single Agent Responses (inhibition, % I), 72 h
[2] = Homo sapiens, SW837, Colorectal, growth inhibition (GI) curve, single agent, 72 h
[3] = SW837 (KRAS G12C), enhancer + MEI-522 (Voruciclib), 72 h;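 for Best CI Level: inhibition effect level at which the best CI was calculated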
[4] = enhancer combined with MEI-522 (Voruciclib), SW837 (Colorectal), 72 hours, inhibition data
[5] = Panc 04.03 (KRAS G12D), enhancer + MEI-522 (Voruciclib), 72 h;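 for Best CI Level: inhibition effect level at which the best CI was calculated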
[6] = enhancer combined with MEI-522 (Voruciclib), Panc 04.03 (Pancreas), 72 hours, inhibition data
[7] = Homo sapiens, SW48 KRAS (G12C/+), Colorectal, Additional Single Agent Responses (inhibition, % I), 72 h
[8] = Homo sapiens, SW48 KRAS (G12C/+), Colorectal, growth inhibition (GI) curve, single agent, 72 h
[9] = SW48 KRAS (G12C/+), enhancer + MEI-522 (Voruciclib), 72 h
[10] = enhancer combined with MEI-522 (Voruciclib), SW48 KRAS (G12C/+) (Colorectal), 72 hours, inhibition data
[11] = Homo sapiens, SW48, Colorectal, Additional Single Agent Responses (inhibition, % I), 72 h
[12] = Homo sapiens, SW48, Colorectal, growth inhibition (GI) curve, single agent, 72 h
[13] = SW48 (KRAS WT), enhancer + MEI-522 (Voruciclib), 72 h
[14] = enhancer combined with MEI-522 (Voruciclib), SW48 (Colorectal), 72 hours, inhibition data
[15] = Homo sapiens, KYSE-410, Esophageal, Additional Single Agent Responses (inhibition, % I), 72 h
[16] = Homo sapiens, KYSE-410, Esophageal, growth inhibition (GI) curve, single agent, 72 h
[17] = KYSE-410 (KRAS G12C), enhancer + MEI-522 (Voruciclib), 72 h;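 for Best CI Level: inhibition effect level at which the best CI was calculated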
[18] = enhancer combined with MEI-522 (Voruciclib), KYSE-410 (Esophageal), 72 hours, inhibition data

Work on `CC[C@@H]1C(=O)N(C)c2cnc(Nc3ccc(C(=O)N[C@H]4CC[C@H](N5CCN(CC6CC6)CC5)CC4)cc3OC)nc2N1C(C)C` [Volasertib] yielded a pEC50 (SW837; [1]) of 7.86, a pEC50 (SW837; [2]) of 7.70 and a pIC50 (SW837; [1]) of 7.68. It also gave an Emax (SW837; Homo sapiens, SW837, Colorectal, Additional Single Agent Responses, 72 h, read-out: Max Response (% I)) of 79%, a GI50 (SW837; [2]) of 14.8 nM and an Emax (SW837; Homo sapiens, SW837, Colorectal, growth inhibition (GI), single agent, 72 h, read-out: Max Response (% GI)) of 128%. For the same compound, the “Best CI” value (SW837; [3]) was 0.72, the “Bliss Volume” value (SW837; [3]) was 4.69 and the HSA volume (SW837; [3]) was 2.14. The “Loewe Volume” value (SW837; [3]) was 0.39, the “Synergy Score” value (SW837; [3]) was 5.42 and the “Response Area” value (SW837; SW837, Colorectal, Additional Single Agent Responses (inhibition, % I), 72 h) was 3.61. For the same compound, the “Response Area” value (SW837; SW837, Colorectal, growth inhibition (GI), AUC, single agent, 72 h) was 5.63, the “Best CI” value (SW837; [4]) was 0.83 and the “Best CI Level” value (SW837; [4]) was 20. For the same compound, the “Bliss Volume” value (SW837; [4]) was 0.17, the HSA volume (SW837; [4]) was 1.01 and the “Loewe Volume” value (SW837; [4]) was 0.29. The “Synergy Score” value (SW837; [4]) was 1.39, the GI50 (Panc 04.03; Homo sapiens, Panc 04.03, 72 h) was 4.6 nM and the pIC50 (Panc 04.03; Homo sapiens, Panc 04.03, 72 h) was 8.23. It also gave a pEC50 (Panc 04.03; Homo sapiens, Panc 04.03, 72 h, Additional Single Agent Responses (inhibition, % I), 72 h) of 8.38, a pEC50 (Panc 04.03; Homo sapiens, Panc 04.03, 72 h, growth inhibition (GI) curve, single agent, 72 h) of 8.38 and an Emax (Panc 04.03; Homo sapiens, Panc 04.03, 72 h, read-out: Max Response (% GI)) of 87%. The Emax (Panc 04.03; Homo sapiens, Panc 04.03, 72 h, read-out: Max Response (% I)) was 64%, the “Best CI” value (Panc 04.03; [5]) was 0.74 and the “Bliss Volume” value (Panc 04.03; [5]) was 4.14. The HSA volume (Panc 04.03; [5]) was 2.74, the “Loewe Volume” value (Panc 04.03; [5]) was 1.36 and the “Synergy Score” value (Panc 04.03; [5]) was 7.71. For the same compound, the “Response Area” value (Panc 04.03; Additional Single Agent Responses (inhibition, % I), 72 h) was 2.78, the “Response Area” value (Panc 04.03; growth inhibition (GI), AUC, single agent, 72 h) was 3.75 and the “Best CI” value (Panc 04.03; [6]) was 0.67. For the same compound, the “Best CI Level” value (Panc 04.03; [6]) was 80, the “Bliss Volume” value (Panc 04.03; [6]) was −0.87 and the HSA volume (Panc 04.03; [6]) was 1.03. The “Loewe Volume” value (Panc 04.03; [6]) was 0.18, the “Synergy Score” value (Panc 04.03; [6]) was 2.30 and the pEC50 (SW48 KRAS (G12C/+); [7]) was 8.37. For the same compound, the pEC50 (SW48 KRAS (G12C/+); [8]) was 8.36, the pIC50 (SW48 KRAS (G12C/+); [7]) was 8.34 and the Emax (SW48 KRAS (G12C/+); Homo sapiens, SW48 KRAS (G12C/+), Colorectal, Additional Single Agent Responses, 72 h, read-out: Max Response (% I)) was 90%. For the same compound, the GI50 (SW48 KRAS (G12C/+); [8]) was 4.4 nM, the Emax (SW48 KRAS (G12C/+); Homo sapiens, SW48 KRAS (G12C/+), Colorectal, growth inhibition (GI), single agent, 72 h, read-out: Max Response (% GI)) was 141% and the “Response Area” value (SW48 KRAS (G12C/+); SW48 KRAS (G12C/+), Colorectal, Additional Single Agent Responses (inhibition, % I), 72 h) was 3.98. The “Response Area” value (SW48 KRAS (G12C/+); SW48 KRAS (G12C/+), Colorectal, growth inhibition (GI), AUC, single agent, 72 h) was 5.48, the “Best CI” value (SW48 KRAS (G12C/+); [9]) was 0.08 and the “Bliss Volume” value (SW48 KRAS (G12C/+); [9]) was 5.42. For the same compound, the HSA volume (SW48 KRAS (G12C/+); [9]) was 1.24, the “Loewe Volume” value (SW48 KRAS (G12C/+); [9]) was 2.81 and the “Synergy Score” value (SW48 KRAS (G12C/+); [9]) was 11.77. The “Best CI” value (SW48 KRAS (G12C/+); [10]) was 0.13, the “Best CI Level” value (SW48 KRAS (G12C/+); [10]) was 80 and the “Bliss Volume” value (SW48 KRAS (G12C/+); [10]) was −0.04. The HSA volume (SW48 KRAS (G12C/+); [10]) was 0.65, the “Loewe Volume” value (SW48 KRAS (G12C/+); [10]) was 1.39 and the “Synergy Score” value (SW48 KRAS (G12C/+); [10]) was 3.33. It also gave a pEC50 (SW48; [11]) of 8.33, a pEC50 (SW48; [12]) of 8.31 and a pIC50 (SW48; [11]) of 8.31. The Emax (SW48; Homo sapiens, SW48, Colorectal, Additional Single Agent Responses, 72 h, read-out: Max Response (% I)) was 95%, the GI50 (SW48; [12]) was 4.6 nM and the Emax (SW48; Homo sapiens, SW48, Colorectal, growth inhibition (GI), single agent, 72 h, read-out: Max Response (% GI)) was 174%. For the same compound, the “Best CI” value (SW48; [13]) was 0.11, the “Bliss Volume” value (SW48; [13]) was 8.81 and the HSA volume (SW48; [13]) was −0.59. The “Loewe Volume” value (SW48; [13]) was 1.23, the “Synergy Score” value (SW48; [13]) was 11.75 and the “Response Area” value (SW48; SW48, Colorectal, Additional Single Agent Responses (inhibition, % I), 72 h) was 4.47. For the same compound, the “Response Area” value (SW48; SW48, Colorectal, growth inhibition (GI), AUC, single agent, 72 h) was 6.76, the “Best CI” value (SW48; [14]) was 0.60 and the “Bliss Volume” value (SW48; [14]) was 0.08. For the same compound, the HSA volume (SW48; [14]) was 0.40, the “Loewe Volume” value (SW48; [14]) was 0.43 and the “Synergy Score” value (SW48; [14]) was 1.83. The Best CI Level (SW48; enhancer combined with MEI-522 (Voruciclib), SW48 (Colorectal), 72 hours, inhibition data, unit assumed) was 20%, the pEC50 (KYSE-410; [15]) was 8.07 and the pEC50 (KYSE-410; [16]) was 8.07. The pIC50 (KYSE-410; [15]) was 7.88, the Emax (KYSE-410; Homo sapiens, KYSE-410, Esophageal, Additional Single Agent Responses, 72 h, read-out: Max Response (% I)) was 74% and the GI50 (KYSE-410; [16]) was 10.1 nM. For the same compound, the Emax (KYSE-410; Homo sapiens, KYSE-410, Esophageal, growth inhibition (GI), single agent, 72 h, read-out: Max Response (% GI)) was 89%, the “Best CI” value (KYSE-410; [17]) was 1.85 and the “Bliss Volume” value (KYSE-410; [17]) was −3.04. The HSA volume (KYSE-410; [17]) was −2.10, the “Loewe Volume” value (KYSE-410; [17]) was −3.58 and the “Synergy Score” value (KYSE-410; [17]) was 0.91. For the same compound, the “Response Area” value (KYSE-410; KYSE-410, Esophageal, Additional Single Agent Responses (inhibition, % I), 72 h) was 3.52, the “Response Area” value (KYSE-410; KYSE-410, Esophageal, growth inhibition (GI), AUC, single agent, 72 h) was 4.24 and the “Best CI” value (KYSE-410; [18]) was 0.40. The “Bliss Volume” value (KYSE-410; [18]) was −3.11, the HSA volume (KYSE-410; [18]) was −1.71 and the “Loewe Volume” value (KYSE-410; [18]) was −2.95. For the same compound, the “Synergy Score” value (KYSE-410; [18]) was 0.62 and the Best CI Level (KYSE-410; enhancer combined with MEI-522 (Voruciclib), KYSE-410 (Esophageal), 72 hours, inhibition data, unit assumed) was 70%.
